Test results published in patent US10597388B2, “Pyridazinone herbicides” (FMC CORPORATION, priority 2014, dated 2020).
Like-named read-outs stand apart in the source and are kept apart here.

Key:
Type in all cases: in vivo
[1] = tested on: barnyardgrass (Echinochloa crus-galli); test: Test A greenhouse herbicide test, pre- and postemergence; conditions: for pest or weed control at 125 g/ha / pest or weed control at 500 g/ha: Echinochloa crus-galli, 240 h
How it was run: (§1)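 Seeds in loam–sand blend received a preemergence directed soil spray; plants at 2–10 cm, one- to two-leaf stage, received postemergence sprays. Compounds in a non-phytotoxic solvent with surfactant. After about 10 d in a greenhouse, injury rated visually versus untreated controls on a 0–100 scale (100 = complete control).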

corn (Zea mays) = test: as above
How it was run: as §1

[2] = tested on: foxtail, giant (giant foxtail, Setaria faberii); test: as above; conditions: for pest or weed control at 125 g/ha / pest or weed control at 500 g/ha: Setaria faberi, 240 h
How it was run: as §1

[3] = tested on: pigweed (Amaranthus retroflexus); test: as above; conditions: for pest or weed control at 125 g/ha / pest or weed control at 500 g/ha: Amaranthus retroflexus, 240 h
How it was run: as §1

[4] = tested on: wheat (Triticum aestivum); test: as above; conditions: for plant injury at 125 g/ha / plant injury at 500 g/ha: Triticum aestivum, 240 h; for plant injury at 125 g/ha / Plant response rating, Wheat: 125 g ai/ha; for plant injury at 500 g/ha / Wheat plant response rating: 500 g ai/ha, 0 to 100 scale
How it was run: as §1

soybean (Glycine max) = test: Test E greenhouse herbicide test, pre- and postemergence
From the text: Seeds of plant species selected from corn (Zea mays), soybean (Glycine max), velvetleaf (Abutilon theophrasti), lambsquarters (Chenopodium album), wild poinsettia (Euphorbia heterophylla), pigweed, palmer (palmer pigweed, Amaranthus palmeri), waterhemp (common waterhemp, Amaranthus rudis), surinam grass (Brachiaria decumbens), crabgrass, large (large crabgrass, Digitaria sanguinalis), crabgrass, Brazilian (Brazilian crabgrass, Digitaria horizontalis), panicum, fall (fall panicum, Panicum dichotomiflorum), foxtail, giant (giant foxtail, Setaria faberii), foxtail, green (green foxtail, Setaria viridis), goosegrass (Eleusine indica), johnsongrass (Sorghum halepense), ragweed (common ragweed, Ambrosia elatior), barnyardgrass (Echinochloa crus-galli), sandbur (southem sandbur, Cenchrus echinatus), arrowleaf sida (Sida rhombifolia), Italian ryegrass (Lolium multiflorum), dayflower (Virginia (VA) dayflower, Commelina virginica), field bindweed (Convolvulus arvensis), momingglory (Ipomoea coccinea), nightshade (eastern black nightshade, Solanum ptycanthum), kochia (Kochia scoparia), nutsedge, yellow (yellow nutsedge, Cyperus esculentus), horseweed (Conyza canadensis), and beggarticks (hairy beggarticks, Bidens pilosa), were planted into a silt loam soil and treated preemergence with test chemicals formulated in a non-phytotoxic solvent mixture which included a surfactant.
At the same time, plants from these crop and weed species and also waterhemp_RES1, (ALS & Triazine resistant common waterhemp, Amaranthus rudis), and waterhemp_RES2, (ALS & HPPD resistant common waterhemp, Amaranthus rudis) were planted in pots containing Redi-Earth® planting medium (Scotts Company, 14111 Scottslawn Road, Marysville, Ohio 43041) comprising spaghnum peat moss, vermiculite, wetting agent and starter nutrients were treated with postemergence applications of test chemicals formulated in the same manner. Plants ranged in height from 2 to 18 cm for postemergence treatments (1- to 4-leaf stage). Treated plants and controls were maintained in a greenhouse for 14 to 21 d, after which time all species were compared to controls and visually evaluated. Plant response ratings, summarized in Table E, are based on a scale of 0 to 100 where 0 is no effect and 100 is complete control. A dash (-) response means no test result.

kochia (Kochia scoparia) = test: Test A greenhouse herbicide test, pre- and postemergence
How it was run: as §1

[5] = tested on: ragweed (common ragweed, Ambrosia elatior); test: as above
How it was run: as §1

[6] = tested on: ryegrass, Italian (Italian ryegrass, Lolium multiflorum); test: as above
How it was run: as §1

[7] = 62 g ai/ha, Postemergence, scale 0 to 100 (0 no effect, 100 complete control)
[8] = 62 g ai/ha, Preemergence, scale 0 to 100 (0 no effect, 100 complete control)
[9] = 125 g ai/ha, Postemergence, scale 0 to 100 (0 no effect, 100 complete control)
[10] = 125 g ai/ha, Preemergence, scale 0 to 100 (0 no effect, 100 complete control)
[11] = 250 g ai/ha, Postemergence, scale 0 to 100 (0 no effect, 100 complete control)
[12] = Postemergence, 31 g ai/ha, visual, scale 0 no effect to 100 complete control
[13] = Preemergence, 31 g ai/ha, scale 0 to 100, 0 no effect, 100 complete control
[14] = Postemergence, 125 g ai/ha, visual rating after approx. 10 d, 0 to 100 scale (0 no effect, 100 complete control)
[15] = Postemergence, 500 g ai/ha, 0 to 100 scale, 0 is no effect, 100 is complete control
[16] = Preemergence, 125 g ai/ha, 0 to 100 scale where 0 is no effect and 100 is complete control
[17] = Preemergence, 500 g ai/ha, 0 to 100 scale, 0 no effect, 100 complete control
[18] = Postemergence, visual rating after approx. 10 d, 0 to 100 scale (0 no effect, 100 complete control)
[19] = Postemergence, 0 is no effect, 100 is complete control

Cc1cc(C)c2sc(C)c(-c3c(O)c(C)nn(C)c3=O)c2c1 [Compound 2, 5-hydroxy-2,6-dimethyl-4-(2,5,7-trimethylbenzo[b]thien-3-yl)-3(2H)-pyridazinone]
pest or weed control at 125 g/ha ([1]; post-emergence, Postemergence, 125 g ai/ha, visual rating after approx. 10 d, 0 to 100 scale (0 no effect, 100 complete control), read-out: Plant response rating, Barnyardgrass): 30%
pest or weed control at 500 g/ha ([1]; post-emergence, Postemergence, 500 g ai/ha, 0 to 100 scale, 0 is no effect, 100 is complete control, read-out: Barnyardgrass plant response rating): 80%
pest or weed control at 125 g/ha ([1]; pre-emergence, Preemergence, 125 g ai/ha, 0 to 100 scale where 0 is no effect and 100 is complete control, read-out: Barnyardgrass plant response rating): 50%
pest or weed control at 500 g/ha ([1]; pre-emergence, Preemergence, 500 g ai/ha, 0 to 100 scale, 0 no effect, 100 complete control, read-out: Plant response rating, Barnyardgrass): 80%
Corn plant response rating (crop injury, 0 = no effect, 100 = complete kill) at 125 g/ha (corn (Zea mays); Zea mays, post-emergence, 240 h, Postemergence, 125 g ai/ha, visual rating after approx. 10 d, 0 to 100 scale (0 no effect, 100 complete control)): 0%
plant injury at 500 g/ha (corn (Zea mays); Zea mays, post-emergence, 240 h, Postemergence, 500 g ai/ha, 0 to 100 scale, 0 is no effect, 100 is complete control, read-out: Corn plant response rating): 20%
plant injury at 125 g/ha (corn (Zea mays); Zea mays, pre-emergence, 240 h, Preemergence, 125 g ai/ha, 0 to 100 scale where 0 is no effect and 100 is complete control, read-out: Corn plant response rating): 0%
Corn plant response rating (crop injury, 0 = no effect, 100 = complete kill) at 500 g/ha (corn (Zea mays); Zea mays, pre-emergence, 240 h, Preemergence, 500 g ai/ha, 0 to 100 scale, 0 no effect, 100 complete control): 10%
pest or weed control at 125 g/ha ([2]; post-emergence, Postemergence, 125 g ai/ha, visual rating after approx. 10 d, 0 to 100 scale (0 no effect, 100 complete control), read-out: Plant response rating, Foxtail, Giant): 80%
pest or weed control at 500 g/ha ([2]; post-emergence, Postemergence, 500 g ai/ha, 0 to 100 scale, 0 is no effect, 100 is complete control, read-out: Foxtail, Giant plant response rating): 90%
pest or weed control at 125 g/ha ([2]; pre-emergence, Preemergence, 125 g ai/ha, 0 to 100 scale where 0 is no effect and 100 is complete control, read-out: Foxtail, Giant plant response rating): 100%
pest or weed control at 500 g/ha ([2]; pre-emergence, Preemergence, 500 g ai/ha, 0 to 100 scale, 0 no effect, 100 complete control, read-out: Plant response rating, Foxtail, Giant): 100%
pest or weed control at 125 g/ha ([3]; post-emergence, Postemergence, 125 g ai/ha, visual rating after approx. 10 d, 0 to 100 scale (0 no effect, 100 complete control), read-out: Plant response rating, Pigweed): 100%
pest or weed control at 500 g/ha ([3]; post-emergence, Postemergence, 500 g ai/ha, 0 to 100 scale, 0 is no effect, 100 is complete control, read-out: Pigweed plant response rating): 100%
pest or weed control at 125 g/ha ([3]; pre-emergence, Preemergence, 125 g ai/ha, 0 to 100 scale where 0 is no effect and 100 is complete control, read-out: Pigweed plant response rating): 100%
pest or weed control at 500 g/ha ([3]; pre-emergence, Preemergence, 500 g ai/ha, 0 to 100 scale, 0 no effect, 100 complete control, read-out: Plant response rating, Pigweed): 100%
plant injury at 125 g/ha ([4]; post-emergence, Postemergence, visual rating after approx. 10 d, 0 to 100 scale (0 no effect, 100 complete control), read-out: Plant response rating, Wheat): 20%
plant injury at 500 g/ha ([4]; post-emergence, Postemergence, 0 is no effect, 100 is complete control, read-out: Wheat plant response rating): 20%
plant injury at 125 g/ha ([4]; pre-emergence, Preemergence, 0 to 100 scale where 0 is no effect and 100 is complete control, read-out: Wheat plant response rating): 0%
plant injury at 500 g/ha ([4]; pre-emergence, Preemergence, 0 no effect, 100 complete control, read-out: Plant response rating, Wheat): 0%
Plant response rating, Soybean (soybean (Glycine max); [7]): 0
Plant response rating, Soybean (soybean (Glycine max); [8]): 0
Plant response rating, Soybean (soybean (Glycine max); [9]): 0
Plant response rating, Soybean (soybean (Glycine max); [10]): 15
Plant response rating, Soybean (soybean (Glycine max); [11]): 0
Plant response rating, Soybean (soybean (Glycine max); Postemergence, 16 g ai/ha, visual, scale 0 no effect to 100 complete control): 0
Plant response rating, Soybean (soybean (Glycine max); [12]): 0
Plant response rating, Soybean (soybean (Glycine max); Preemergence, 16 g ai/ha, scale 0 to 100, 0 no effect, 100 complete control): 0
Plant response rating, Soybean (soybean (Glycine max); [13]): 0
Plant response rating, Soybean (soybean (Glycine max); Preemergence, 250 g ai/ha, visual, scale 0 no effect to 100 complete control): 40

Cn1nc(Br)c(O)c(-c2cccc3ccccc23)c1=O [Compound 20]
Plant response rating, Barnyardgrass [1, 14]: 30
Barnyardgrass plant response rating [1, 15]: 100
Barnyardgrass plant response rating [1, 16]: 30
Plant response rating, Barnyardgrass [1, 17]: 90
Plant response rating, Corn (corn (Zea mays); [14]): 20
Corn plant response rating (corn (Zea mays); [15]): 30
Plant response rating, Foxtail, Giant [2, 14]: 30
Foxtail, Giant plant response rating [2, 15]: 100
Foxtail, Giant plant response rating [2, 16]: 40
Plant response rating, Foxtail, Giant [2, 17]: 90
Plant response rating, Kochia (kochia (Kochia scoparia); [14]): 90
Kochia plant response rating (kochia (Kochia scoparia); [15]): 100
Kochia plant response rating (kochia (Kochia scoparia); [16]): 80
Plant response rating, Kochia (kochia (Kochia scoparia); [17]): 100
Plant response rating, Pigweed [3, 14]: 100
Pigweed plant response rating [3, 15]: 100
Pigweed plant response rating [3, 16]: 80
Plant response rating, Pigweed [3, 17]: 100
Plant response rating, Ragweed [5, 14]: 80
Ragweed plant response rating [5, 15]: 100
Ragweed plant response rating [5, 16]: 30
Plant response rating, Ragweed [5, 17]: 90
Plant response rating, Ryegrass, Italian [6, 14]: 100
Ryegrass, Italian plant response rating [6, 15]: 100
Ryegrass, Italian plant response rating [6, 16]: 90
Plant response rating, Ryegrass, Italian [6, 17]: 100
Plant response rating, Wheat [4, 18]: 20
Wheat plant response rating [4, 19]: 30
Plant response rating, Soybean (soybean (Glycine max); [7]): 20
Plant response rating, Soybean (soybean (Glycine max); [8]): 0
Plant response rating, Soybean (soybean (Glycine max); [9]): 40
Plant response rating, Soybean (soybean (Glycine max); [10]): 20
Plant response rating, Soybean (soybean (Glycine max); [11]): 30
Plant response rating, Soybean (soybean (Glycine max); [12]): 20
Plant response rating, Soybean (soybean (Glycine max); [13]): 0

Cc1cc(C)c2ccccc2c1-c1c(O)c(C)nn(C)c1=O [Compound 21]
Plant response rating, Barnyardgrass [1, 14]: 90
Barnyardgrass plant response rating [1, 15]: 90
Barnyardgrass plant response rating [1, 16]: 90
Plant response rating, Barnyardgrass [1, 17]: 100
Plant response rating, Corn (corn (Zea mays); [14]): 50
Corn plant response rating (corn (Zea mays); [15]): 60
Plant response rating, Foxtail, Giant [2, 14]: 100
Foxtail, Giant plant response rating [2, 15]: 100
Foxtail, Giant plant response rating [2, 16]: 90
Plant response rating, Foxtail, Giant [2, 17]: 100
Plant response rating, Kochia (kochia (Kochia scoparia); [14]): 100
Kochia plant response rating (kochia (Kochia scoparia); [15]): 100
Kochia plant response rating (kochia (Kochia scoparia); [16]): 30
Plant response rating, Kochia (kochia (Kochia scoparia); [17]): 90
Plant response rating, Pigweed [3, 14]: 100
Pigweed plant response rating [3, 15]: 100
Pigweed plant response rating [3, 16]: 100
Plant response rating, Pigweed [3, 17]: 100
Plant response rating, Ragweed [5, 14]: 100
Ragweed plant response rating [5, 15]: 100
Ragweed plant response rating [5, 16]: 100
Plant response rating, Ragweed [5, 17]: 100
Plant response rating, Ryegrass, Italian [6, 14]: 100
Ryegrass, Italian plant response rating [6, 15]: 100
Ryegrass, Italian plant response rating [6, 16]: 100
Plant response rating, Ryegrass, Italian [6, 17]: 100
Plant response rating, Wheat [4, 18]: 10
Wheat plant response rating [4, 19]: 60
Plant response rating, Soybean (soybean (Glycine max); [8]): 35
Plant response rating, Soybean (soybean (Glycine max); [10]): 35
Plant response rating, Soybean (soybean (Glycine max); [13]): 35
